What was measured:
IFIT2 [1] = experiment: NP-35 co-transfection: IFIT2 induction; format: cell-based, human; settings: NP-35-formulated compound, A549-Dual cells
C57BL/6 mice = experiment: IM injection of repRNA-SEAP with nanoparticle-encapsulated inhibitors: serum SEAP; format: in vivo; settings: 500 μM dose level versus equivalent no compound group, days 3-28
Protocol: The ten candidate compounds were formulated in NP-1 nanoparticle emulsion to evaluate their effect on expression when co-delivered with repRNA. All compounds were readily soluble in non-polar solvents which enabled dissolution in the lipophilic squalene oil phase of NP-1. A probe sonication process was adapted to formulate candidate compounds in 1 mL batches of nanoparticle emulsions. The z-average nanoparticle diameter was measured by dynamic light scattering (DLS) and ranged from 110-130 nm. Activity of compounds formulated in nanoparticle emulsions was tested both in vitro (FIG. 11A). Cells were transfected with 20 ng repRNA per well in the presence of IFN and delivered with empty nanoparticles (no inhibitor) or nanoparticle encapsulating a compound inhibitor delivered at a calculated 0.5 μM per well. […] C57BL/6 female mice (6-8 weeks old; n=3/group) were injected by IM route with 10 μg repRNA-SEAP complexed with empty nanoparticles (no compound) or nanoparticles encapsulating a small molecule inhibitor at 500 μM. The positive control group received an IFNAR-1 blocking monoclonal antibody (MAR1-5A3) by intraperitoneal (IP) injection one day before IM injection of NP-1/repRNA-SEAP. […]

BALB/c mice = experiment: Systemic (IV) compounds with IM NP-1/repRNA-ZIKV-117: serum ZIKV-117; format: in vivo; settings: for ZIKV-117 expression compared to no compound group: compound IV (Dinaciclib 5 mg/kg, CDKI-73 5 mg/kg, AZD4573 1 mg/kg), 10 μg repRNA-ZIKV-117 IM, days 3-28
Protocol: The purpose of the experiment was to evaluate the effect of systemically administered compound inhibitors on protein expression.
A molar ratio of nitrogen to phosphate (N:P) for each of the formulation was adjusted. […] Each compound was formulated as an aqueous solution or suspension following instructions from the vendor (MedChemExpress). At the same time as systemic compound treatment, mice were given 10 μg repRNA-encoding ZIKV-117 mAb complexed to nanoparticles by IM injection in the hind leg. Mice were bled on days 3, 5, 7, 10, 14, 21 and 28 after administration of NP-1/repRNA-ZIKV-117, and assayed for ZIKV-117 levels in serum. The positive control group received an IFNAR-1 blocking monoclonal antibody (MAR1-5A3) by intraperitoneal (IP) injection one day before administration of NP-1/repRNA-ZIKV-117.

NF-κB [2] = experiment: NP-35 co-transfection: NF-κB induction; format: cell-based, human; settings: highest concentrations of NP-35-formulated compound
Protocol: The objective of this experiment was to evaluate co-transfection of LNP (e.g., NP-35) with lead small molecule inhibitor compounds for enhancing protein expression from repRNA in transfected cells. […] LNP was formulated according to NP-35 formulation. Additionally, nanoparticles were also formulated according to […] formulation. About 5×10^4 A549-Dual cells were incubated at 37° C. with 5% CO2 for 18-24 hours with the compound at a concentration ranging from 1 μg to 0.06 ng. The cells were then treated with repRNA-nLuc, IFN, and nanoparticles (NP-35 or NP-30). The treated cells were incubated at 37° C. with 5% CO2 for 18-24 hours. nLuc expression was measured by Nano-GLO assay and plotted against the concentration of repRNA-nLuc that was used for the transfection (FIG. 14A-14H).

A549-Dual cells [3] = experiment: Single-point screen: cell viability by CellTiter-Glo; settings: A549-Dual cells incubated overnight with compound at 50 μM, then NP-1+mRNA 20 ng/well + IFN 1:50
Protocol: Finally, cell lysates were assayed with the CellTiter-GLO® assay (Promega) to obtain a luminescent-based measure of cell viability. In summary, the readouts from the high throughput screen included the primary measure of nLuc protein expression and three secondary readouts: IFIT, NF-κB and cell viability.
For each assay, A549-dual cells were plated at a seeding density of about 5×10^4 cells per well. Cells were incubated overnight with compounds at 50 microMolar (μM) in 1% v/v dimethyl sulfoxide (DMSO). For control wells, 1% DMSO was added to each well. After about 24 hours, the culture medium was removed, and cells were transfected with NP-1+mRNA at 20 ng/mRNA/well in Opti-MEM® media (Thermofisher). Interferon (IFN) was diluted to 1:50 in all test wells except for the RNA only wells and media only wells. Anti-IFN was diluted 1:1000 in “RNA+anti-IFN+IFN” wells. Cells were incubated for 4 hours, and culture medium was added to the Opti-MEM® medium. After 24 hours, assay supernatants were collected and analyzed for nLuc expression, IFIT2 (qLuc), and NFκB (qBLUE-SEAP™, InvivoGen) activation. Cells were then lysed, and cell viability was determined by CellTiter-Glo® (Promega) assay.

NF-κB [4] = experiment: Single-point screen: NFκB activation (SEAP reporter); format: cell-based, human; settings: Homo sapiens, 24 h; A549-Dual cells, compound 50 μM pre-treatment, NP-1+mRNA 20 ng/well + IFN; read-out: fold NFkB over IFN
Excerpt: (§1) The cells produce secreted embryonic alkaline phosphatase (SEAP), under the control of the interferon beta […] minimal promoter fused to five NF-κB binding sites. The cells also secrete lucia luciferase under the control of IFIT2 promoter.

IFIT2 [5] = experiment: Single-point screen: IFIT2 activation (Lucia luciferase, QUANTI-Luc); format: cell-based, human; settings: Homo sapiens, 24 h; A549-Dual cells, compound 50 μM pre-treatment, NP-1+mRNA 20 ng/well + IFN; read-out: fold IFIT over IFN
Excerpt: as §1

A549-Dual cells [6] = experiment: Single-point kinase inhibitor library screen: nLuc expression from NP-1+mRNA-nLuc in IFN-treated cells; format: cell-based, human; settings: Homo sapiens, compound 50 μM pre-treatment, NP-1+mRNA 20 ng/well + IFN, read-out: fold nLuc over RNA + IFN
Protocol: as §1
To measure protein expression from mRNA, which is the primary readout for compound down selection, mRNA encoding a secreted version of nanoluciferase (mRNA-nLuc) was used. Protein expression was measured via a luminometer using standard techniques.
As additional criterion, expression in compound treated cells was compared relative to mRNA-transfected cells without IFN (“RNA only”) (data not shown).
A library of small molecule kinase inhibitors was screened for the ability to enhance expression of mRNA-encoded genes when co-delivered with mRNA.

A549-Dual cells [7] = experiment: NP-35 co-encapsulating repRNA-nLuc and Dinaciclib: nLuc expression; format: cell-based, human; settings: 0.5 mM Dinaciclib co-encapsulated, A549-Dual cells + IFN
Protocol: Briefly, A549-Dual cells were incubated at 37° C. with 5% CO2 for 18-24 hours. […] About 5×10^4 cells were transfected with the formulation at different concentrations in the presence of IFN. The transfected cells were incubated at 37° C. with 5% CO2 for 18-24 hours. nLuc expression was measured by Nano-GLO assay and plotted against the concentration of repRNA-nLuc that was used for the transfection (FIG. 15).

[8] = biological target: mouse IFN alpha/beta receptor (IFNAR-1) (mouse) (UniProt P33896); experiment: cell-based or functional assay
Sequence of mouse IFN alpha/beta receptor (IFNAR-1) (mouse) (P33896 27-590 limits assumed): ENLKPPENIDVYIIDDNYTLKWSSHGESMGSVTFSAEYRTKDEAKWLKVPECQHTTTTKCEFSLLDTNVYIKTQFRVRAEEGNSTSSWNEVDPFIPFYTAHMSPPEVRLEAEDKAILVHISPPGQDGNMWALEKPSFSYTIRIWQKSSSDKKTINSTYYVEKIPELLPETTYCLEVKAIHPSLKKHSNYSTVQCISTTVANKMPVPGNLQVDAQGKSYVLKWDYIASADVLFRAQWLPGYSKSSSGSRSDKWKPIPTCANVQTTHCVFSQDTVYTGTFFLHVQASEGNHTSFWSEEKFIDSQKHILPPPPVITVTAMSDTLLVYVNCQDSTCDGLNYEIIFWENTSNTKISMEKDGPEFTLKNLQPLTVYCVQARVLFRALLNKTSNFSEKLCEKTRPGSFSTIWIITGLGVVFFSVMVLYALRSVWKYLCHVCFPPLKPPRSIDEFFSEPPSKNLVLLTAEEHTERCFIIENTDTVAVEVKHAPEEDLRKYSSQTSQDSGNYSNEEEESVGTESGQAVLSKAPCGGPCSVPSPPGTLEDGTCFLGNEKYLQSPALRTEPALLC

## CC(=O)N[C@@H]1CCC[C@H](C(=O)Nc2cc(-c3cnn4c3CC(C)(C)C4)c(Cl)cn2)C1 [AZD4573, (1S,3R)-3-acetamido-N-[5-chloro-4-(5,5-dimethyl-4,6-dihydropyrrolo[1,2-b]pyrazol-3-yl)pyridin-2-yl]cyclohexane-1-carboxamide]
IFIT2 [1]
  IFIT2 induction: significant dose-dependent reduction in IFIT2 induction
C57BL/6 mice
  total protein (SEAP) expression, AUC of expression kinetics: significant increase in total protein expression
BALB/c mice
  ZIKV-117 expression compared to no compound group: higher total expression than no compound group but not statistically significant

## CC(C)n1cnc2c(NCc3nc4c(F)c(F)ccc4[nH]3)nc(N3CCCC[C@H]3CCO)nc21 [CDK12-IN-3, 2-[(2S)-1-[6-[(4,5-difluoro-1H-benzimidazol-2-yl)methylamino]-9-propan-2-ylpurin-2-yl]piperidin-2-yl]ethanol]
IFIT2 [1]
  IFIT2 induction: significant dose-dependent reduction in IFIT2 induction

## COc1ccc(F)cc1-c1cc(NC(=O)[C@@H]2CCCNC2)ncc1Cl [CDK-IN-2, (3R)-N-[5-chloro-4-(5-fluoro-2-methoxyphenyl)pyridin-2-yl]piperidine-3-carboxamide]
NF-κB [2]
  IFN-beta mediated NF-κB induction relative to cells transfected with NP-35: slight increase in IFN-beta mediated NF-κB induction
IFIT2 [1]
  IFIT2 induction: significant dose-dependent reduction in IFIT2 induction
A549-Dual cells [3]
  % viability: 23%
NF-κB [4]
  fold induction at 50 µM: 0.28
IFIT2 [5]
  fold induction at 50 µM: 1.06
A549-Dual cells [6]
  fold induction at 50 µM: 157

## CNc1nc(C)c(-c2nc(Nc3cccc(S(N)(=O)=O)c3)ncc2F)s1 [CDKI-73, 3-[[5-fluoro-4-[4-methyl-2-(methylamino)-1,3-thiazol-5-yl]pyrimidin-2-yl]amino]benzenesulfonamide]
NF-κB [2]
  IFN-beta mediated NF-κB induction relative to cells transfected with NP-35: slight increase in IFN-beta mediated NF-κB induction
BALB/c mice
  ZIKV-117 expression compared to no compound group: higher total expression than no compound group but not statistically significant

## CCc1cnn2c(NCc3ccc[n+]([O-])c3)cc(N3CCCC[C@H]3CCO)nc12 [Dinaciclib, 2-[(2S)-1-[3-ethyl-7-[(1-oxidopyridin-1-ium-3-yl)methylamino]pyrazolo[1,5-a]pyrimidin-5-yl]piperidin-2-yl]ethanol]
IFIT2 [1]
  IFIT2 induction: significant dose-dependent reduction in IFIT2 induction
A549-Dual cells [7]
  nLuc expression relative to NP-35/repRNA-nLuc without Dinaciclib: significantly enhanced nLuc expression
BALB/c mice; Dinaciclib 5 mg/kg IV
  ZIKV-117 expression compared to positive control (anti-IFNAR-1): more rapid and higher magnitude expression
BALB/c mice
  ZIKV-117 expression compared to no compound group: significantly enhanced ZIKV-117 expression

## CC(C)c1c2cc(-c3ccnc(NC4CCC(NC5CCOCC5)CC4)n3)ccc2nn1C (centres unmarked) [LY2857785, 4-N-[4-(2-methyl-3-propan-2-ylindazol-5-yl)pyrimidin-2-yl]-1-N-(oxan-4-yl)cyclohexane-1,4-diamine]
NF-κB [2]
  IFN-beta mediated NF-κB induction relative to cells transfected with NP-35: slight increase in IFN-beta mediated NF-κB induction

## Nc1nc(N[C@H]2C[C@@H]3CC[C@H]2C3)sc1C(=O)c1ccccc1[N+](=O)[O-] [MC180295, [4-amino-2-[[(1S,2S,4R)-2-bicyclo[2.2.1]heptanyl]amino]-1,3-thiazol-5-yl]-(2-nitrophenyl)methanone]
NF-κB [2]
  IFN-beta mediated NF-κB induction relative to cells transfected with NP-35: slight increase in IFN-beta mediated NF-κB induction

## O=C1NCCSc2c1sc1ccc(O)cc21 [kb NB 142-70, 9-hydroxy-3,4-dihydro-2H-[1]benzothiolo[2,3-f][1,4]thiazepin-5-one]
A549-Dual cells [3]
  % viability: 52%
NF-κB [4]
  fold induction at 50 µM: 0.61
IFIT2 [5]
  fold induction at 50 µM: 2.31
A549-Dual cells [6]
  fold induction at 50 µM: 187

## IFNAR-1 blocking monoclonal antibody (MAR1-5A3)
[8]
  SEAP expression in serum of C57BL/6 mice on day seven after IM injection of NP-1/repRNA-SEAP: 10 fold
